Tested on: Endogenous Huntingtin Protein
Test: Endogenous Huntingtin Protein Assay (ELISA-based MSD electrochemiluminescence)
Format: cell-based
Conditions: Table 1
Experimental: Compounds of Formula (I) or Formula (II) were tested using the Meso Scale Discovery (MSD) Assay provided in International Application No. PCT/US2016/066042, filed on Dec. 11, 2016 and claiming priority to U.S. Provisional Application 62/265,652 filed on Dec. 10, 2015, the entire contents of which are incorporated herein by reference.
The Endogenous Huntingtin Protein assay used in Example 1 was developed using the ELISA-based MSD electrochemiluminescence assay platform.
Endogenous Huntingtin Protein Assay
Meso Scale Discovery (MSD) 96-well or 384-well plates were coated overnight at 4° C. with MW1 (expanded polyglutamine) or MAB2166 monoclonal antibody (for capture) at a concentration of 1 μg/mL in PBS (30 μL per well). Plates were then washed three times with 300 μL wash buffer (0.05% Tween-20 in PBS) and blocked (100 μL blocking buffer; 5% BSA in PBS) for 4-5 hours at room temperature with rotational shaking and then washed three times with wash buffer.
Samples (25 μL) were transferred to the antibody-coated MSD plate and incubated overnight at 4° C. After removal of the lysates, the plate was washed three times with wash buffer, and 25 μL of #5656S (Cell signaling; rabbit monoclonal) secondary antibody (diluted to 0.25 μg/mL in 0.05% Tween-20 in blocking buffer) was added to each well and incubated with shaking for 1 Hour at room temperature. Following incubation with the secondary antibody, the wells were rinsed with wash buffer after which 25 μL of goat anti-rabbit SULFO TAG secondary detection antibody (required aspect of the MSD system) (diluted to 0.25 μg/mL in 0.05% Tween-20 in blocking buffer) was added to each well and incubated with shaking for 1 hour at room temperature. After rinsing three times with wash buffer, 150 μL of read buffer T with surfactant (MSD) were added to each empty well, and the plate was imaged on a SI 6000 imager (MSD) according to manufacturers' instructions provided for 96- or 384-well plates.

Row | Compound | IC50 [nM]
1 | Cn1cc2cc(-c3ccc4nc(NC5CCNCC5)sc4c3)ccc2n1 [Compound 35, 6-(2-methyl-2H-indazol-5-yl)-N-(piperidin-4-yl)-1,3-benzothiazol-2-amine] | 100 to 500
2 | Cc1cc(-c2ccc3nc(N(C)C4CCNCC4)sc3n2)cc2cn(C)nc12 [Compound 36, 5-(2,7-dimethyl-2H-indazol-5-yl)-N-methyl-N-(piperidin-4-yl)[1,3]thiazolo[5,4-b]pyridin-2-amine] | 100 to 500
3 | Cc1cn2nc(-c3cc(F)c4nc(N(C)C5CC(C)(C)NC(C)(C)C5)sc4c3)ccc2n1 [Compound 37, 4-fluoro-N-methyl-6-(2-methylimidazo[1,2-b]pyridazin-6-yl)-N-(2,2,6,6-tetramethylpiperidin-4-yl)-1,3-benzothiazol-2-amine] | ≤ 100
4 | CN(c1nc2ccc(-c3ccc4nn(C)cc4c3)cc2s1)C1CCNC1 (stereo not shown) [Compound 38, N-methyl-6-(2-methyl-2H-indazol-5-yl)-N-(pyrrolidin-3-yl)-1,3-benzothiazol-2-amine] | 1000 to 3000
5 | Cc1cn2cc(-c3cc(F)c4nc(N(C)C5CC(C)(C)NC(C)(C)C5)sc4c3)cc(C)c2n1 [Compound 39, 6-(2,8-dimethylimidazo[1,2-a]pyridin-6-yl)-4-fluoro-N-methyl-N-(2,2,6,6-tetramethylpiperidin-4-yl)-1,3-benzothiazol-2-amine] | ≤ 100
6 | Cc1cn2nc(-c3ccc4nc(N(C)C5CC(C)(C)NC(C)(C)C5)sc4c3)ccc2n1 [Compound 40, N-methyl-6-(2-methylimidazo[1,2-b]pyridazin-6-yl)-N-(2,2,6,6-tetramethylpiperidin-4-yl)-1,3-benzothiazol-2-amine] | ≤ 100
7 | Cn1cc2cc(-c3ccc4nc(C5(F)CCNCC5)sc4c3)ccc2n1 [Compound 41, 2-(4-fluoropiperidin-4-yl)-6-(2-methyl-2H-indazol-5-yl)-1,3-benzothiazole] | 1000 to 3000
8 | Cn1cc2cc(-c3ccc4nc(C5CCCNCC5)sc4c3)ccc2n1 (stereo not shown) [Compound 42, 2-(azepan-4-yl)-6-(2-methyl-2H-indazol-5-yl)-1,3-benzothiazole] | 100 to 500
9 | Cn1cc2cc(-c3nc4ncc(C5CCNCC5)cc4s3)ccc2n1 [Compound 43, 2-(2-methyl-2H-indazol-5-yl)-6-(piperidin-4-yl)[1,3]thiazolo[4,5-b]pyridine] | 100 to 500
10 | Cc1cn2nc(-c3cc(F)c4nc(C5=CCNCC5)sc4c3)ccc2n1 [Compound 44, 6-[4-fluoro-2-(1,2,3,6-tetrahydropyridin-4-yl)-1,3-benzothiazol-6-yl]-2-methylimidazo[1,2-b]pyridazine] | ≤ 100
11 | Cc1cn2nc(-c3cc(F)c4nc(C5CCNCC5)sc4c3)ccc2n1 [Compound 45, 6-[4-fluoro-2-(piperidin-4-yl)-1,3-benzothiazol-6-yl]-2-methylimidazo[1,2-b]pyridazine] | ≤ 100
12 | Cc1cn2nc(-c3cc(F)c4nc(C5=CCNCC5)sc4c3)cc(C)c2n1 [Compound 46, 6-[4-fluoro-2-(1,2,3,6-tetrahydropyridin-4-yl)-1,3-benzothiazol-6-yl]-2,8-dimethylimidazo[1,2-b]pyridazine] | ≤ 100
13 | Cc1cn2nc(-c3cc(F)c4nc(C5CCNCC5)sc4c3)cc(C)c2n1 [Compound 47, 6-[4-fluoro-2-(piperidin-4-yl)-1,3-benzothiazol-6-yl]-2,8-dimethylimidazo[1,2-b]pyridazine] | ≤ 100
14 | Cc1nc2ccc(-c3ccc4nc(N(C)C5CC(C)(C)NC(C)(C)C5)sc4c3)nn2n1 [Compound 48, N-methyl-6-(2-methyl[1,2,4]triazolo[1,5-b]pyridazin-6-yl)-N-(2,2,6,6-tetramethylpiperidin-4-yl)-1,3-benzothiazol-2-amine] | 100 to 500
15 | Cc1cc(-c2nc3ccc(C4=CCNCC4)cc3s2)cc2cn(C)nc12 [Compound 49, 2-(2,7-dimethyl-2H-indazol-5-yl)-6-(1,2,3,6-tetrahydropyridin-4-yl)-1,3-benzothiazole] | 100 to 500
16 | Cc1cc(-c2nc3ccc(C4CCNCC4)cc3s2)cc2cn(C)nc12 [Compound 50, 2-(2,7-dimethyl-2H-indazol-5-yl)-6-(piperidin-4-yl)-1,3-benzothiazole] | 100 to 500
17 | CN(c1nc2ccc(-c3cc(C(F)(F)F)c4nn(C)cc4c3)cc2s1)C1CC(C)(C)NC(C)(C)C1 [Compound 51, N-methyl-6-[2-methyl-7-(trifluoromethyl)-2H-indazol-5-yl]-N-(2,2,6,6-tetramethylpiperidin-4-yl)-1,3-benzothiazol-2-amine] | 100 to 500

Row | Compound | IC50 [nM]
18 | Cn1cc2cc(-c3ccc4nc(C5CC(C)(C)NC(C)(C)C5)sc4c3)ccc2n1 [Compound 52, 6-(2-methyl-2H-indazol-5-yl)-2-(2,2,6,6-tetramethylpiperidin-4-yl)-1,3-benzothiazole] | 1000 to 3000
19 | Cc1cn2cc(-c3cc(F)c4nc(C5=CCNCC5)sc4c3)nc(C)c2n1 [Compound 53, 6-[4-fluoro-2-(1,2,3,6-tetrahydropyridin-4-yl)-1,3-benzothiazol-6-yl]-2,8-dimethylimidazo[1,2-a]pyrazine] | 100 to 500
20 | CCc1cc(-c2ccc3nc(N(C)C4CC(C)(C)NC(C)(C)C4)sc3c2)cc2cn(C)nc12 [Compound 54, 6-(7-ethyl-2-methyl-2H-indazol-5-yl)-N-methyl-N-(2,2,6,6-tetramethylpiperidin-4-yl)-1,3-benzothiazol-2-amine] | 100 to 500
21 | Cc1cn2cc(-c3ccc4nc(N(C)C5CC(C)(C)NC(C)(C)C5)sc4c3)cc2c(C)n1 [Compound 55, 6-(1,3-dimethylpyrrolo[1,2-a]pyrazin-7-yl)-N-methyl-N-(2,2,6,6-tetramethylpiperidin-4-yl)-1,3-benzothiazol-2-amine] | ≤ 100
22 | Cn1cc2cc(-c3ccc4nc(C5=CCCNCC5)sc4c3)ccc2n1 [Compound 56, 6-(2-methyl-2H-indazol-5-yl)-2-(2,3,6,7-tetrahydro-1H-azepin-4-yl)-1,3-benzothiazole] | 500 to 1000
23 | CN(c1nc2ccc(-c3cc(F)c4nn(C)cc4c3)cc2s1)C1CC(C)(C)NC(C)(C)C1 [Compound 57, 6-(7-fluoro-2-methyl-2H-indazol-5-yl)-N-methyl-N-(2,2,6,6-tetramethylpiperidin-4-yl)-1,3-benzothiazol-2-amine] | ≤ 100
24 | CC1CC(c2nc3ccc(-c4ccc5nn(C)cc5c4)cc3s2)CCN1 (stereo not shown) [Compound 58, 6-(2-methyl-2H-indazol-5-yl)-2-(2-methylpiperidin-4-yl)-1,3-benzothiazole] | 500 to 1000
25 | Cc1cc(-c2cc3sc(C4CCNCC4)nc3cn2)cc2cn(C)nc12 [Compound 59, 6-(2,7-dimethyl-2H-indazol-5-yl)-2-(piperidin-4-yl)[1,3]thiazolo[4,5-c]pyridine] | 100 to 500
26 | Cn1cc2cc(-c3cc4sc(C5CCNCC5)nc4cn3)cc(C(F)(F)F)c2n1 [Compound 60, 6-[2-methyl-7-(trifluoromethyl)-2H-indazol-5-yl]-2-(piperidin-4-yl)[1,3]thiazolo[4,5-c]pyridine] | 100 to 500
27 | Cc1cn2nc(-c3cnc4nc(C5CCNCC5)sc4c3)cc(C)c2n1 [Compound 61, 6-(2,8-dimethylimidazo[1,2-b]pyridazin-6-yl)-2-(piperidin-4-yl)[1,3]thiazolo[4,5-b]pyridine] | ≤ 100
28 | CN(c1nc2ccc(-c3cc(C#N)c4nn(C)cc4c3)cc2s1)C1CC(C)(C)NC(C)(C)C1 [Compound 62, 2-methyl-5-{2-[methyl(2,2,6,6-tetramethylpiperidin-4-yl)amino]-1,3-benzothiazol-6-yl}-2H-indazole-7-carbonitrile] | ≤ 100
29 | Cc1cn2cc(-c3ccc4nc(N(C)C5CC(C)(C)NC(C)(C)C5)sc4c3)ccc2n1 [Compound 63, N-methyl-6-(2-methylimidazo[1,2-a]pyridin-6-yl)-N-(2,2,6,6-tetramethylpiperidin-4-yl)-1,3-benzothiazol-2-amine] | 100 to 500
30 | Cn1cc2cc(-c3ccc4nc(OC5CC(C)(C)NC(C)(C)C5)sc4c3)ccc2n1 [Compound 64, 6-(2-methyl-2H-indazol-5-yl)-2-[(2,2,6,6-tetramethylpiperidin-4-yl)oxy]-1,3-benzothiazole] | 1000 to 3000
31 | CC1CC(c2nc3ccc(-c4ccc5nn(C)cc5c4)cc3s2)=CCN1 (stereo not shown) [Compound 65, 6-(2-methyl-2H-indazol-5-yl)-2-(2-methyl-1,2,3,6-tetrahydropyridin-4-yl)-1,3-benzothiazole] | 100 to 500
32 | Cc1cc(-c2ccc3nc(N(C)C4CCNC(C)C4)sc3c2)cc2cn(C)nc12 (stereo not shown) [Compound 66, 6-(2,7-dimethyl-2H-indazol-5-yl)-N-methyl-N-(2-methylpiperidin-4-yl)-1,3-benzothiazol-2-amine] | ≤ 100
33 | CC1C=C(c2nc3ccc(-c4ccc5nn(C)cc5c4)cc3s2)CCN1 (stereo not shown) [Compound 67, 6-(2-methyl-2H-indazol-5-yl)-2-(6-methyl-1,2,3,6-tetrahydropyridin-4-yl)-1,3-benzothiazole] | 1000 to 3000
34 | Cc1cc(-c2ccc3nc(OC4CC(C)(C)NC(C)(C)C4)sc3c2)cc2cn(C)nc12 [Compound 68, 6-(2,7-dimethyl-2H-indazol-5-yl)-2-[(2,2,6,6-tetramethylpiperidin-4-yl)oxy]-1,3-benzothiazole] | 1000 to 3000

— patent US12139499B2, “Heteroaryl compounds for treating Huntington's disease” (PTC THERAPEUTICS, INC., priority 2018, dated 2024)
